US4468511A, “C-20- And C-23-Modified macrolide derivatives” (Eli Lilly and Company, priority 1983, dated 1984)
In brackets after ≈: the same amount, converted by molar mass. Read-outs that look alike come from different tables or passages of the source.

Tests used:
Pasteurella multocida = test: Pasteurella infection in one-day old chicks; assay type: in vivo; conditions: subcutaneous, 30 mg/kg × 2, 1 and 4 hours post-challenge
Experimental: Certain of the formula 1 compounds of this invention have also shown in vivo activity against infections induced by gram-negative bacteria. Table V summarizes the results of tests in which illustrative compounds were evaluated against a Pasteurella infection in one-day old chicks. The compounds were administered parenterally after challenge of the chicks with Pasteurella multocida (0.1 ml of a 10^-4 dilution of a twenty-hour tryptose broth culture of an avian P. multocida given subcutaneously). In these tests, unless indicated otherwise, all non-medicated infected chicks died within 24 hours of Pasteurella challenge. In the tests summarized in Table V, the compounds were administered by subcutaneous injection at a dosage of 30 mg/kg, 1 and 4 hours post-challenge of the chicks with P. multocida.

[1] = test system: Streptococcus pyogenes C203; test: Protection of mice experimentally infected with S. pyogenes C203; assay type: in vivo; conditions: mg/kg × 2, doses given 1 and 4 hours postinfection
Experimental: Some of the derivatives of this invention have shown in vivo antimicrobial activity against experimentally-induced infections in laboratory animals. When two doses of test compound were administered to mice experimentally infected with S. pyogenes C203, the activity observed was measured as an ED50 value [effective dose in mg/kg to protect 50% of the test animals: see Warren Wick, et al., J. Bacteriol. 81, 233-235 (1961)].

[2] = test system: Staphylococcus epidermidis EPI1; test: microbe, parasite or virus in culture; assay type: cell-based; conditions: Staphylococcus epidermidis, EPI1
Experimental: (§1) The MIC's in Table II were determined by standard agar-dilution assays. The MIC's in Table III were obtained using a conventional broth-dilution microtiter test.

[3] = test system: Staphylococcus aureus S13E; test: microbe, parasite or virus in culture; assay type: cell-based
Experimental: as §1

Escherichia coli EC14 = test: MIC, standard agar-dilution assay; assay type: cell-based; conditions: Escherichia coli, EC14
Experimental: (§2) Certain of the derivatives are active against some gram-negative bacteria, such as Pasteurella species. The MIC's in Table II were determined by standard agar-dilution assays. The MIC's in Table III were obtained using a conventional broth-dilution microtiter test.

[4] = test system: Klebsiella pneumoniae KAE; test: MIC, standard agar-dilution assay; assay type: cell-based; conditions: agar-dilution; Klebsiella pneumoniae KAE; read-out: MIC
Summary of the method: (§3)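 Agar plates containing graded compound levels gave the Klebsiella value. Graded broth dilutions in microtiter plates gave the Pasteurella and Mycoplasma values.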

[5] = test system: Streptococcus pyogenes 9960; test: MIC, standard agar-dilution assay; assay type: cell-based; conditions: agar-dilution, Streptococcus 9960, read-out: MIC
Experimental: as §2

[6] = test system: Streptococcus pyogenes C203; test: MIC, standard agar-dilution assay; assay type: cell-based; conditions: agar-dilution; Streptococcus pyogenes C203; read-out: MIC
Experimental: as §2

Escherichia coli TEM = test: MIC, standard agar-dilution assay; assay type: cell-based; conditions: Escherichia coli
Summary of the method: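 Antibacterial activity toward the gram-negative organism Escherichia coli was assessed by conventional agar dilution. The MIC, reported in ug/mL, is the minimum compound concentration on agar that prevents growth.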

[7] = test system: Staphylococcus aureus V41; test: MIC, standard agar-dilution assay; assay type: cell-based; conditions: agar-dilution; Staphylococcus aureus V41, Penicillin-resistant strain; read-out: MIC
Experimental: as §2

[8] = test system: Klebsiella pneumoniae X26; test: MIC, standard agar-dilution assay; assay type: cell-based; conditions: Klebsiella pneumoniae, X26
Summary of the method: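 Two formats were used. Broth dilution in microtiter plates served for Pasteurella and Mycoplasma, while agar dilution served for Klebsiella.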

[9] = test system: Streptococcus pneumoniae Park I; test: MIC, standard agar-dilution assay; assay type: cell-based; conditions: Streptococcus pneumoniae
Experimental: as §2

[10] = test system: Streptococcus Group D X66; test: MIC, standard agar-dilution assay; assay type: cell-based
Experimental: as §2

[11] = test system: Staphylococcus aureus X1.1; test: MIC, standard agar-dilution assay; assay type: cell-based; conditions: Staphylococcus aureus, X1.1
Summary of the method: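 A standard agar-dilution assay was used to test compounds against the Staphylococcus aureus isolate X1.1. Bacterial growth on agar with different compound concentrations was assessed, and the minimum inhibitory concentration was recorded in ug/mL.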

[12] = test system: Haemophilus influenzae C.L.; test: MIC, standard agar-dilution assay; assay type: cell-based; conditions: Haemophilus influenzae
Experimental: as §1

[13] = test system: Haemophilus influenzae 76; test: MIC, standard agar-dilution assay; assay type: cell-based; conditions: agar-dilution; Haemophilus influenzae 76, Ampicillin-resistant strain; read-out: MIC
Experimental: as §1

[14] = test system: Staphylococcus epidermidis EPI2; test: MIC, standard agar-dilution assay; assay type: cell-based; conditions: Staphylococcus epidermidis, EPI2
Experimental: as §1

[15] = test system: Staphylococcus aureus X400; test: MIC, standard agar-dilution assay; assay type: cell-based; conditions: Staphylococcus aureus, X400
Experimental: as §1

Mycoplasma gallisepticum = test: MIC, conventional broth-dilution microtiter test; assay type: cell-based; conditions: Mycoplasmoides gallisepticum; broth-dilution microtiter; Mycoplasma gallisepticum; read-out: MIC
Summary of the method: as §3

Staphylococcus aureus = test: MIC, conventional broth-dilution microtiter test; assay type: cell-based; conditions: broth-dilution microtiter, read-out: MIC
Experimental: as §2

Mycoplasma synoviae = test: MIC, conventional broth-dilution microtiter test; assay type: cell-based; conditions: Mycoplasmopsis synoviae; broth-dilution microtiter; Mycoplasma synoviae; read-out: MIC
Summary of the method: as §3

[16] = test system: Mycoplasma gallisepticum 41313; test: MIC, conventional broth-dilution microtiter test; assay type: cell-based; conditions: Mycoplasmoides gallisepticum; broth-dilution microtiter; Mycoplasma gallisepticum 41313, Resistant strain; read-out: MIC
Summary of the method: as §3

[17] = test system: Pasteurella multocida 68C; test: MIC, conventional broth-dilution microtiter test; assay type: cell-based; conditions: broth-dilution microtiter; Pasteurella multocida 68C; read-out: MIC
Summary of the method: as §3

[18] = test system: Pasteurella multocida 40G; test: MIC, conventional broth-dilution microtiter test; assay type: cell-based; conditions: broth-dilution microtiter; Pasteurella multocida 40G; read-out: MIC
Summary of the method: as §3

[19] = test system: Pasteurella multocida 60A; test: MIC, conventional broth-dilution microtiter test; assay type: cell-based; conditions: broth-dilution microtiter; Pasteurella multocida 60A, Avian isolate; read-out: MIC
Summary of the method: as §3

[20] = test system: Pasteurella hemolytica 23C; test: MIC, conventional broth-dilution microtiter test; assay type: cell-based; conditions: broth-dilution microtiter; Pasteurella hemolytica 23C; read-out: MIC
Summary of the method: as §3

[21] = test system: Mycoplasma gallisepticum 34159; test: MIC, conventional broth-dilution microtiter test; assay type: cell-based; conditions: Mycoplasmoides gallisepticum; broth-dilution microtiter; Mycoplasma gallisepticum 34159, Resistant strain; read-out: MIC
Summary of the method: as §3

Mycoplasma hyorhinis = test: MIC, conventional broth-dilution microtiter test; assay type: cell-based; conditions: broth-dilution microtiter; Mycoplasma hyorhinis; read-out: MIC
Summary of the method: as §3

[22] = test system: Pasteurella multocida 22A; test: MIC, conventional broth-dilution microtiter test; assay type: cell-based; conditions: broth-dilution microtiter; Pasteurella multocida 22A; read-out: MIC
Summary of the method: as §3

Streptococcus sp. 80 = test: MIC, conventional broth-dilution microtiter test; assay type: cell-based; conditions: broth-dilution microtiter; Streptococcus sp. 80; read-out: MIC
Experimental: as §2

[23] = test system: Pasteurella hemolytica 41D; test: MIC, conventional broth-dilution microtiter test; assay type: cell-based; conditions: broth-dilution microtiter; Pasteurella hemolytica 41D; read-out: MIC
Summary of the method: as §3

[24] = test system: Pasteurella hemolytica 22C; test: MIC, conventional broth-dilution microtiter test; assay type: cell-based; conditions: broth-dilution microtiter; Pasteurella hemolytica 22C; read-out: MIC
Summary of the method: as §3

[25] = test system: Pasteurella multocida 17E; test: MIC, conventional broth-dilution microtiter test; assay type: cell-based; conditions: broth-dilution microtiter; Pasteurella multocida 17E, Bovine isolate; read-out: MIC
Summary of the method: as §3

In the case of `CCC1OC(=O)CC(O)C(C)C(OC2OC(C)C(O)C(N(C)C)C2O)C(CCNCc2ccccc2)CC(C)C(=O)C=CC(C)=CC1CO` (stereo not shown) [Compound 4, 20-N-Benzylamino-20-deoxy-20-dihydro-OMT], the “Number of Deaths/Number Treated” value (Pasteurella multocida) is reported as 1/10, the ED50 ([1]; C203, mice, oral, read-out: ED50 Oral) is reported as over 100 mg/kg and the ED50 ([1]; C203, sc, mice, subcutaneous, read-out: ED50 Subcutaneous) is reported as 16.1 mg/kg. It also gave an MIC [2] of 4 µg/mL (≈ 5.81 µM), an MIC [3] of 8 µg/mL (≈ 11.6 µM) and an MIC (Escherichia coli EC14) of 128 µg/mL (≈ 186 µM). It also gave an MIC [4] of over 128 µg/mL, an MIC [5] of 32 µg/mL (≈ 46.5 µM) and an MIC [6] of 4 µg/mL (≈ 5.81 µM). For the same molecule, the MIC (Escherichia coli TEM) was 8 µg/mL (≈ 11.6 µM), the MIC [7] was 16 µg/mL (≈ 23.2 µM) and the MIC [8] was 8 µg/mL (≈ 11.6 µM). The MIC [9] was 2 µg/mL (≈ 2.9 µM), the MIC [10] was 16 µg/mL (≈ 23.2 µM) and the MIC [11] was 8 µg/mL (≈ 11.6 µM). It also gave an MIC [12] of 2 µg/mL (≈ 2.9 µM), an MIC [13] of 2 µg/mL (≈ 2.9 µM) and an MIC [14] of 32 µg/mL (≈ 46.5 µM). For the same molecule, the MIC [15] was 32 µg/mL (≈ 46.5 µM), the MIC (Mycoplasma gallisepticum) was 3.12 µg/mL (≈ 4.53 µM) and the MIC (Staphylococcus aureus) was 12.5 µg/mL (≈ 18.1 µM). The MIC (Mycoplasma synoviae) was 12.5 µg/mL (≈ 18.1 µM), the MIC [16] was 50 µg/mL (≈ 72.6 µM) and the MIC [17] was 3.12 µg/mL (≈ 4.53 µM). The MIC [18] was 6.25 µg/mL (≈ 9.07 µM), the MIC [19] was 3.12 µg/mL (≈ 4.53 µM) and the MIC [20] was 6.25 µg/mL (≈ 9.07 µM). The MIC [21] was 50 µg/mL (≈ 72.6 µM), the MIC (Mycoplasma hyorhinis) was 50 µg/mL (≈ 72.6 µM) and the MIC [22] was 12.5 µg/mL (≈ 18.1 µM). For the same molecule, the MIC (Streptococcus sp. 80) was 6.25 µg/mL (≈ 9.07 µM), the MIC [23] was 6.25 µg/mL (≈ 9.07 µM) and the MIC [24] was 6.25 µg/mL (≈ 9.07 µM). The MIC [25] was 3.12 µg/mL (≈ 4.53 µM).
